Laboratory results as given in ChEMBL document CHEMBL1201862, “PubChem BioAssay data set” (2004).
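Method: 48-hour compound exposure of cells in 96-well plates, five concentrations, linear interpolation of endpoints. The concentration for 50% growth inhibition is given as GI50.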 Active and inactive are the calls of the source. Cut-off read from the data, not from the text of the source: active = GI50 up to about 1.1 µM and inactive = higher.

Tests used:
Experiment in all cases: inhibition of tumour cell growth, NCI panel, 48 h
[1] = tested on: RXF 393
[2] = tested on: NCI-H23
[3] = tested on: OVCAR-5
[4] = tested on: NCI-H522
[5] = tested on: HCT-15
[6] = tested on: BT-549
[7] = tested on: NCI-H226
[8] = tested on: MOLT-4
[9] = tested on: NCI/ADR-RES
[10] = tested on: TK-10
[11] = tested on: MDA-MB-231
[12] = tested on: RPMI-8226
[13] = tested on: MCF7
[14] = tested on: SK-OV-3
[15] = tested on: SF-539
[16] = tested on: U-251
[17] = tested on: HCC 2998
[18] = tested on: HOP-62
[19] = tested on: LOX IMVI
[20] = tested on: SNB-19
[21] = tested on: SNB-75
[22] = tested on: SN12C
[23] = tested on: UO-31
[24] = tested on: HOP-92
[25] = tested on: M14
[26] = tested on: SR
[27] = tested on: Malme-3M
[28] = tested on: OVCAR-4
[29] = tested on: MDA-MB-435
[30] = tested on: HL-60
[31] = tested on: HCT-116
[32] = tested on: SK-MEL-28
[33] = tested on: CAKI-1
[34] = tested on: 786-0
[35] = tested on: ACHN
[36] = tested on: IGROV-1
[37] = tested on: SK-MEL-2
[38] = tested on: NCI-H460
[39] = tested on: OVCAR-3
[40] = tested on: T47D
[41] = tested on: SK-MEL-5
[42] = tested on: DU-145
[43] = tested on: KM12
[44] = tested on: MDA-N
[45] = tested on: COLO 205
[46] = tested on: UACC-257
[47] = tested on: SF-295
[48] = tested on: CCRF-CEM
[49] = tested on: SF-268
[50] = tested on: EKVX
[51] = tested on: UACC-62
[52] = tested on: A498
[53] = tested on: A549
[54] = tested on: PC-3
[55] = tested on: SW-620
[56] = tested on: Hs-578T
[57] = tested on: HT-29
[58] = tested on: K562
[59] = tested on: OVCAR-8

O=c1c2nn3c(=O)n(-c4ccccc4)c(=O)c3nn2c(=O)n1-c1ccccc1
GI50 [1]: > 100 µM (inactive)
GI50 [2]: > 100 µM (inactive)
GI50 [3]: > 100 µM (inactive)
GI50 [4]: > 100 µM (inactive)
GI50 [5]: > 100 µM
GI50 [6]: > 100 µM (inactive)
GI50 [7]: > 100 µM (inactive)
GI50 [8]: > 100 µM (inactive)
GI50 [9]: > 100 µM (inactive)
GI50 [10]: > 100 µM (inactive)
GI50 [11]: > 100 µM (inactive)
GI50 [12]: > 100 µM (inactive)
GI50 [13]: > 100 µM (inactive)
GI50 [14]: > 100 µM (inactive)
GI50 [15]: > 100 µM (inactive)
GI50 [16]: > 100 µM (inactive)
GI50 [17]: > 100 µM (inactive)
GI50 [18]: > 100 µM (inactive)
GI50 [19]: > 100 µM (inactive)
GI50 [20]: > 100 µM (inactive)
GI50 [21]: 81.3 µM (inactive)
GI50 [22]: > 100 µM (inactive)
GI50 [23]: > 100 µM (inactive)
GI50 [24]: > 100 µM (inactive)
GI50 [25]: > 100 µM (inactive)
GI50 [26]: > 100 µM (inactive)
GI50 [27]: > 100 µM (inactive)
GI50 [28]: > 100 µM (inactive)
GI50 [29]: > 100 µM (inactive)
GI50 [30]: > 100 µM (inactive)
GI50 [31]: > 100 µM (inactive)
GI50 [32]: > 100 µM (inactive)
GI50 [33]: > 100 µM (inactive)
GI50 [34]: > 100 µM (inactive)
GI50 [35]: > 100 µM (inactive)
GI50 [36]: > 100 µM (inactive)
GI50 [37]: > 100 µM (inactive)
GI50 [38]: > 100 µM (inactive)
GI50 [39]: > 100 µM (inactive)
GI50 [40]: > 100 µM (inactive)
GI50 [41]: > 100 µM (inactive)
GI50 [42]: > 100 µM (inactive)
GI50 [43]: > 100 µM (inactive)
GI50 [44]: > 100 µM (inactive)
GI50 [45]: > 100 µM (inactive)
GI50 [46]: > 100 µM (inactive)
GI50 [47]: 54.1 µM (inactive)
GI50 [48]: 56 µM (inactive)
GI50 [49]: > 100 µM (inactive)
GI50 [50]: > 100 µM (inactive)
GI50 [51]: > 100 µM (inactive)
GI50 [52]: 50.4 µM (inactive)
GI50 [53]: > 100 µM (inactive)
GI50 [54]: > 100 µM (inactive)
GI50 [55]: > 100 µM (inactive)
GI50 [56]: > 100 µM (inactive)
GI50 [57]: > 100 µM (inactive)
GI50 [58]: > 100 µM (inactive)
GI50 [59]: > 100 µM (inactive)

COC(=O)CCC(C)[C@H]1CCC2C3C(C[C@H](OC(C)=O)[C@@]21C)[C@@]1(C)CCC2(C[C@H]1C[C@H]3OC(C)=O)OOC1(CCCCC1)OO2 (some centres not stated)
GI50 [1]: 38.7 µM (inactive)
GI50 [2]: 12.7 µM (inactive)
GI50 [3]: 43.5 µM (inactive)
GI50 [4]: 9.33 µM (inactive)
GI50 [5]: 21.8 µM
GI50 [6]: 40.6 µM (inactive)
GI50 [7]: 17.7 µM (inactive)
GI50 [8]: 17.2 µM (inactive)
GI50 [9]: 49.2 µM (inactive)
GI50 [10]: > 100 µM (inactive)
GI50 [11]: 18 µM (inactive)
GI50 [12]: 1.99 µM (inactive)
GI50 [13]: 22.3 µM (inactive)
GI50 [14]: 54.5 µM (inactive)
GI50 [15]: 60.1 µM (inactive)
GI50 [16]: 12.7 µM (inactive)
GI50 [17]: 28.3 µM (inactive)
GI50 [18]: 2.99 µM (inactive)
GI50 [19]: 11.5 µM (inactive)
GI50 [20]: 42.2 µM (inactive)
GI50 [21]: 21.2 µM (inactive)
GI50 [22]: 36.6 µM (inactive)
GI50 [23]: 5.73 µM (inactive)
GI50 [24]: 1.02 µM (active)
GI50 [25]: 15.5 µM (inactive)
GI50 [26]: 4.26 µM (inactive)
GI50 [27]: 36.4 µM (inactive)
GI50 [28]: 15.8 µM (inactive)
GI50 [29]: 36.2 µM (inactive)
GI50 [30]: 7.26 µM (inactive)
GI50 [31]: 5.58 µM (inactive)
GI50 [32]: > 100 µM (inactive)
GI50 [33]: 41.1 µM (inactive)
GI50 [34]: 15.1 µM (inactive)
GI50 [35]: 11.2 µM (inactive)
GI50 [36]: 5.2 µM (inactive)
GI50 [37]: 52.7 µM (inactive)
GI50 [38]: 10.8 µM (inactive)
GI50 [39]: 40.5 µM (inactive)
GI50 [40]: 65.9 µM (inactive)
GI50 [41]: 19.4 µM (inactive)
GI50 [42]: 41.5 µM (inactive)
GI50 [43]: 23.6 µM (inactive)
GI50 [44]: 33.9 µM (inactive)
GI50 [45]: 24.7 µM (inactive)
GI50 [46]: 19.1 µM (inactive)
GI50 [47]: 20.7 µM (inactive)
GI50 [48]: 4.27 µM (inactive)
GI50 [49]: 25 µM (inactive)
GI50 [50]: 4.04 µM (inactive)
GI50 [52]: > 100 µM (inactive)
GI50 [53]: 11.3 µM (inactive)
GI50 [54]: 5.97 µM (inactive)
GI50 [55]: 33.3 µM (inactive)
GI50 [56]: 12 µM (inactive)
GI50 [57]: 41.9 µM (inactive)
GI50 [58]: 10.3 µM (inactive)
GI50 [59]: 17.6 µM (inactive)
